How the values were obtained:
[1] = system: mouse xenograft models; conditions: cited from earlier work
[2] = Safety and dose-limiting toxicities, dose-escalation cohort; assay type: in vivo, human
[3] = previous study; cited from earlier work
[4] = system: previously treated advanced ccRCC; experiment: Anti-tumor activity per RECIST v1.1, ccRCC cohort; assay type: in vivo, human
[5] = system: erythropoietin; experiment: Pharmacodynamics: plasma erythropoietin, phase 1 study; assay type: in vivo, human; conditions: all dose levels
[6] = system: advanced solid tumors; experiment: Anti-tumor activity per RECIST v1.1, dose-escalation cohort; assay type: in vivo, human
[7] = Plasma pharmacokinetics of belzutifan, phase 1 study; assay type: in vivo, human
[8] = Safety; assay type: in vivo, human; conditions: for All-cause adverse event: Anemia / All-cause adverse event: Any / All-cause adverse event: Arthralgia / All-cause adverse event: Back pain / All-cause adverse event: Blood creatinine increased / All-cause adverse event: Constipation / All-cause adverse event: Cough / All-cause adverse event: Dehydration / All-cause adverse event: Diarrhea / All-cause adverse event: Dizziness / All-cause adverse event: Dyspnea / All-cause adverse event: Edema peripheral / All-cause adverse event: Fatigue / All-cause adverse event: Headache / All-cause adverse event: Hyperkalemia / All-cause adverse event: Hypoxia / All-cause adverse event: Nausea / All-cause adverse event: Vomiting: ccRCC cohort (n = 55)
[9] = RECIST v1.1, ccRCC cohort, n = 55
[10] = ccRCC cohort n = 55, all grade 3

SMILES: CS(=O)(=O)c1ccc(Oc2cc(F)cc(C#N)c2)c2c1[C@H](O)C(F)(F)C2 [MK-3795, reference compound]
- Tumor regression ([1]; xenograft models): significant tumor regression

SMILES: CS(=O)(=O)c1ccc(Oc2cc(F)cc(C#N)c2)c2c1[C@H](O)[C@H](F)[C@@H]2F [belzutifan, 3-[(1 S,2 S,3 R)-2,3-difluoro-1-hydroxy-7-methylsulfonylindan-4-yl]oxy-5-fluorobenzo nitrile]
- Patients with treatment-related dose-limiting toxicity ([2]; 120 mg twice daily, one of six patients, grade 3 hypoxia): 17%
- Patients with treatment-related dose-limiting toxicity ([2]; 240 mg orally, one of seven patients, grade 4 thrombocytopenia): 14%
- Maximum tolerated dose ([2]; dose-escalation cohort): not reached
- Dose-limiting toxicities ([2]; doses up to 160 mg once daily): no dose-limiting toxicities
- Exposure to belzutifan, dependence on dose [3]: increased with doses up to 120 mg once daily
- Potency relative to MK-3795 ([1]; mouse xenograft models): approximately ten-fold more potent than MK-3795
- Patients with target lesion size reduced from baseline ([4]; 35 of 52 patients with baseline and post-baseline imaging): 67%
- Median progression-free survival ([4]; IMDC favorable risk): not reached
- Complete response [4, 9]: 0 (0) no. (%)
- Non-evaluable [4, 9]: 3 (5) no. (%)
- Partial response [4, 9]: 14 (25) no. (%)
- Progressive disease [4, 9]: 8 (15) no. (%)
- Stable disease [4, 9]: 30 (54) no. (%)
- Median duration of response ([4]; ccRCC cohort): not reached
- Disease control rate ([4]; ccRCC cohort n = 55, 120 mg once daily): 80%
- Objective response rate ([4]; ccRCC cohort n = 55, 120 mg once daily, all partial responses): 25%
- Median progression-free survival ([4]; ccRCC cohort, 95% CI 7.3–not reached, Kaplan–Meier): 14.5 months
- Responders with duration of response ≥6 months ([4]; ten of 14 responders): 71%
- Change in plasma erythropoietin [5]: reductions
- Responses (all partial) ([6]; 120 mg once daily, one of six patients): 17%
- Responses (all partial) ([6]; 120 mg twice daily, one of six patients): 17%
- Responses (all partial) ([6]; 160 mg once daily, two of six patients): 33%
- Median duration of response ([6]; any dose cohort, patients who had a response): not reached
- Dose-normalized area under the concentration curve from time 0 to the end of the dosing period, dependence on dose ([7]; 20–240 mg once daily): increased with dose from 20 to 120 mg but decreased from 120 to 240 mg once daily
- Mean accumulation ratio ([7]; 120-mg twice-daily dosing): 2.4
- Increase in maximum concentration ([7]; 240-mg once-daily cohort compared to 120-mg once-daily expansion cohort): 38%
- Median time to maximum observed plasma concentration ([7]; across dose levels, oral): 1.0 to 2.0 h
- half-life ([7]; human, in vivo, po): 11.2 to 21.5 h
- Mean accumulation ratio ([7]; once-daily dosing): 1.3–1.5
- Patients with anemia who received exogenous erythropoietin ([8]; 28 of 42 patients with anemia): 67%
- All-cause adverse event: Anemia ([8]; All grades or 2): 42 (76) no. (%)
- All-cause adverse event: Any ([8]; All grades or 2): 55 (100) no. (%)
- All-cause adverse event: Arthralgia ([8]; All grades or 2): 14 (25) no. (%)
- All-cause adverse event: Back pain ([8]; All grades or 2): 12 (22) no. (%)
- All-cause adverse event: Blood creatinine increased ([8]; All grades or 2): 14 (25) no. (%)
- All-cause adverse event: Constipation ([8]; All grades or 2): 12 (22) no. (%)
- All-cause adverse event: Cough ([8]; All grades or 2): 17 (31) no. (%)
- All-cause adverse event: Dehydration ([8]; All grades or 2): 11 (20) no. (%)
- All-cause adverse event: Diarrhea ([8]; All grades or 2): 12 (22) no. (%)
- All-cause adverse event: Dizziness ([8]; All grades or 2): 13 (24) no. (%)
- All-cause adverse event: Dyspnea ([8]; All grades or 2): 27 (49) no. (%)
- All-cause adverse event: Edema peripheral ([8]; All grades or 2): 15 (27) no. (%)
- All-cause adverse event: Fatigue ([8]; All grades or 2): 39 (71) no. (%)
- All-cause adverse event: Headache ([8]; All grades or 2): 14 (25) no. (%)
- All-cause adverse event: Hyperkalemia ([8]; All grades or 2): 12 (22) no. (%)
- All-cause adverse event: Hypoxia ([8]; All grades or 2): 17 (31) no. (%)
- All-cause adverse event: Nausea ([8]; All grades or 2): 20 (36) no. (%)
- All-cause adverse event: Vomiting ([8]; All grades or 2): 16 (29) no. (%)
- All-cause adverse event: Anemia ([8]; Grade 1): 27 (49) no. (%)
- All-cause adverse event: Any ([8]; Grade 1): 16 (29) no. (%)
- All-cause adverse event: Arthralgia ([8]; Grade 1): 14 (25) no. (%)
- All-cause adverse event: Back pain ([8]; Grade 1): 11 (20) no. (%)
- All-cause adverse event: Blood creatinine increased ([8]; Grade 1): 13 (24) no. (%)
- All-cause adverse event: Constipation ([8]; Grade 1): 12 (22) no. (%)
- All-cause adverse event: Cough ([8]; Grade 1): 17 (31) no. (%)
- All-cause adverse event: Dehydration ([8]; Grade 1): 10 (18) no. (%)
- All-cause adverse event: Diarrhea ([8]; Grade 1): 12 (22) no. (%)
- All-cause adverse event: Dizziness ([8]; Grade 1): 13 (24) no. (%)
- All-cause adverse event: Dyspnea ([8]; Grade 1): 24 (44) no. (%)
- All-cause adverse event: Edema peripheral ([8]; Grade 1): 15 (27) no. (%)
- All-cause adverse event: Fatigue ([8]; Grade 1): 36 (65) no. (%)
- All-cause adverse event: Headache ([8]; Grade 1): 13 (24) no. (%)
- All-cause adverse event: Hyperkalemia ([8]; Grade 1): 11 (20) no. (%)
- All-cause adverse event: Hypoxia ([8]; Grade 1): 8 (15) no. (%)
- All-cause adverse event: Nausea ([8]; Grade 1): 19 (35) no. (%)
- All-cause adverse event: Vomiting ([8]; Grade 1): 16 (29) no. (%)
- All-cause adverse event: Anemia ([8]; Grade 3): 15 (27) no. (%)
- All-cause adverse event: Any ([8]; Grade 3): 33 (60) no. (%)
- All-cause adverse event: Arthralgia ([8]; Grade 3): 0 (0) no. (%)
- All-cause adverse event: Back pain ([8]; Grade 3): 1 (2) no. (%)
- All-cause adverse event: Blood creatinine increased ([8]; Grade 3): 1 (2) no. (%)
- All-cause adverse event: Constipation ([8]; Grade 3): 0 (0) no. (%)
- All-cause adverse event: Cough ([8]; Grade 3): 0 (0) no. (%)
- All-cause adverse event: Dehydration ([8]; Grade 3): 1 (2) no. (%)
- All-cause adverse event: Diarrhea ([8]; Grade 3): 0 (0) no. (%)
- All-cause adverse event: Dizziness ([8]; Grade 3): 0 (0) no. (%)
- All-cause adverse event: Dyspnea ([8]; Grade 3): 3 (5) no. (%)
- All-cause adverse event: Edema peripheral ([8]; Grade 3): 0 (0) no. (%)
- All-cause adverse event: Fatigue ([8]; Grade 3): 3 (5) no. (%)
- All-cause adverse event: Headache ([8]; Grade 3): 1 (2) no. (%)
- All-cause adverse event: Hyperkalemia ([8]; Grade 3): 1 (2) no. (%)
- All-cause adverse event: Hypoxia ([8]; Grade 3): 9 (16) no. (%)
- All-cause adverse event: Nausea ([8]; Grade 3): 1 (2) no. (%)
- All-cause adverse event: Vomiting ([8]; Grade 3): 0 (0) no. (%)
- All-cause adverse event: Anemia ([8]; Grade 4): 0 (0) no. (%)
- All-cause adverse event: Any ([8]; Grade 4): 2 (4) no. (%)
- All-cause adverse event: Arthralgia ([8]; Grade 4): 0 (0) no. (%)
- All-cause adverse event: Back pain ([8]; Grade 4): 0 (0) no. (%)
- All-cause adverse event: Blood creatinine increased ([8]; Grade 4): 0 (0) no. (%)
- All-cause adverse event: Constipation ([8]; Grade 4): 0 (0) no. (%)
- All-cause adverse event: Cough ([8]; Grade 4): 0 (0) no. (%)
- All-cause adverse event: Dehydration ([8]; Grade 4): 0 (0) no. (%)
- All-cause adverse event: Diarrhea ([8]; Grade 4): 0 (0) no. (%)
- All-cause adverse event: Dizziness ([8]; Grade 4): 0 (0) no. (%)
- All-cause adverse event: Dyspnea ([8]; Grade 4): 0 (0) no. (%)
- All-cause adverse event: Edema peripheral ([8]; Grade 4): 0 (0) no. (%)
- All-cause adverse event: Fatigue ([8]; Grade 4): 0 (0) no. (%)
- All-cause adverse event: Headache ([8]; Grade 4): 0 (0) no. (%)
- All-cause adverse event: Hyperkalemia ([8]; Grade 4): 0 (0) no. (%)
- All-cause adverse event: Hypoxia ([8]; Grade 4): 0 (0) no. (%)
- All-cause adverse event: Nausea ([8]; Grade 4): 0 (0) no. (%)
- All-cause adverse event: Vomiting ([8]; Grade 4): 0 (0) no. (%)
- Patients requiring dose reductions or discontinuations for anemia ([8]; ccRCC cohort): No patients
- Patients with at least one adverse event ([8]; ccRCC cohort): All patients
- Treatment-related grade 4 or 5 events ([8]; ccRCC cohort): No treatment-related grade 4 or 5 events occurred
- Treatment-related adverse event: anemia ([8]; ccRCC cohort n = 55): 71%
- Treatment-related adverse event: hypoxia ([8]; ccRCC cohort n = 55): 18%
- Treatment-related adverse event: nausea ([8]; ccRCC cohort n = 55): 15%
- Treatment-related adverse event: peripheral edema ([8]; ccRCC cohort n = 55): 16%
- Grade ≥3 treatment-emergent adverse event: anemia [8, 10]: 27%
- Grade ≥3 treatment-emergent adverse event: hypoxia [8, 10]: 16%
- Patients requiring dose reductions because of treatment-related adverse events ([8]; ccRCC cohort, five patients): 9%
- Patients who discontinued after treatment-related adverse events ([8]; ccRCC cohort, two patients, both hypoxia): 4%
- Patients with grade 5 adverse events ([8]; ccRCC cohort, disease progression, malignant neoplasm progression, acute kidney injury, cardiac arrest): four patients

From paper PMC9128828 (Nature medicine, 2021)
